From patent US20100137313A1 (ASTRAZENECA AB, priority 2008, published 2010)

Each compound was assayed against S. pneumoniae Topoisomerase IV ATPase (ParE) (Streptococcus pneumoniae serotype 4, UniProt Q59961) (assay: S. pneumoniae Topoisomerase IV ATPase inhibition). Conditions: values marked * are an average of two or more data points, read-out: % Inh (13 μM) of S. pneumoniae Topoisomerase IV ATPase.
Chain of S. pneumoniae Topoisomerase IV ATPase (ParE) (Q59961 whole entry): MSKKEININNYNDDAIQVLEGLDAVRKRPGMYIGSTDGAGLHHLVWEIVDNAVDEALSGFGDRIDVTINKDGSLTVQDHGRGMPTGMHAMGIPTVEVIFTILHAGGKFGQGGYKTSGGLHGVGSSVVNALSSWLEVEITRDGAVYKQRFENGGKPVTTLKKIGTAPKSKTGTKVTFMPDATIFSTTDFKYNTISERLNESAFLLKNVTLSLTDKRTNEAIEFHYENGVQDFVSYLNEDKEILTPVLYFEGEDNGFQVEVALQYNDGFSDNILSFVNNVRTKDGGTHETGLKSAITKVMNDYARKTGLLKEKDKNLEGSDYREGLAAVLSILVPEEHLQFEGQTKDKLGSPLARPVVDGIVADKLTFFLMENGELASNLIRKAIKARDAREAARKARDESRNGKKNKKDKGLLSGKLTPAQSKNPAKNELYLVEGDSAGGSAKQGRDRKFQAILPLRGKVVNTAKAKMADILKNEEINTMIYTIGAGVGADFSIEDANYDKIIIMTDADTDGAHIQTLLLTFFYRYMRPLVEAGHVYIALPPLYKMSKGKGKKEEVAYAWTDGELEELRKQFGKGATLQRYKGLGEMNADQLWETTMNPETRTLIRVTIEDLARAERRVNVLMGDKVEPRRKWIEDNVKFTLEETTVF
Format: biochemical
How it was run: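 Malachite green/ammonium molybdate phosphate detection, A650. 1.25 nM ParE, 160 μM ATP, sheared salmon sperm DNA 5 μg/ml, 20 mM Tris pH 8.0, 8.0 mM MgCl2. Controls: 2% DMSO = 0%, 20 μM EDTA = 100% inhibition; IC50 over 10 concentrations.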
For CN(C)CCCNc1nc(Nc2ccc(F)c(Cl)c2)ncc1-c1cccc([N+](=O)[O-])c1 [Example 14, N^2-(3-chloro-4-fluorophenyl)-N^4-[3-(dimethylamino)propyl]-5-(3-nitrophenyl) pyrimidin-2,4-diamine], the inhibition at 13 µM was 100%. CN(C)CCNc1nc(Nc2ccc(F)c(Cl)c2)ncc1-c1cncc(C(=O)O)c1 [Example 220, 5-[2-(3-Chloro-4-fluoro-phenylamino)-4-(2-dimethylamino-ethylamino)-pyrimidin-5-yl]-nicotinic acid] showed an inhibition at 13 µM of 79%. For CONC(=O)c1cc(-c2cnc(Nc3cc(OC)cc(OC)c3)nc2-n2nc(C(F)(F)F)cc2C)cnc1OC [Example 810, 5-{2-[(3,5-dimethoxyphenyl)amino]-4-[5-methyl-3-(trifluoromethyl)-1H-pyrazol-1-yl]pyrimidin-5-yl}-N,2-dimethoxypyridine-3-carboxamide], the inhibition at 13 µM was 100%. COCCCNc1nc(Nc2ccc(F)c(Cl)c2)ncc1-c1ccc2c(c1)c(=O)c(C(=O)O)cn2CCOC [Example 304, 6-(2-(3-chloro-4-fluorophenylamino)-4-(3-methoxypropylamino)-pyrimidin-5-yl)-1-(2-methoxyethyl)-4-oxo-1,4-dihydroquinoline-3-carboxylic acid] showed an inhibition at 13 µM of 55.8%. O=C(O)/C=C/c1cccc(-c2cnc(Nc3ccc(F)c(Cl)c3)nc2-n2cnc(Cl)c2Cl)c1 [Example 331, (2E)-3-(3-{2-[(3-chloro-4-fluorophenyl)amino]-4-(4,5-dichloro-1H-imidazol-1-yl)pyrimidin-5-yl}phenyl)prop-2-enoic acid] gave an inhibition at 13 µM of 59.8%. For Cc1cc(-c2nccs2)nn1-c1nc(Nc2ccc(F)c(Cl)c2)ncc1-c1cccc(/C=C/C(=O)O)c1 [Example 562, (2E)-3-(3-{2-[(3-chloro-4-fluorophenyl)amino]-4-[5-methyl-3-(1,3-thiazol-2-yl)-1H-pyrazol-1-yl]pyrimidin-5-yl}phenyl)prop-2-enoic acid], the inhibition at 13 µM was 100%. Work on CONC(=O)c1cncc(-c2cnc(Nc3ccc(F)c(Cl)c3)nc2-n2ccc(-c3ccsc3)n2)c1 [Example 548, 5-{2-[(3-chloro-4-fluorophenyl)amino]-4-[3-(thiophen-3-yl)-1H-pyrazol-1-yl]pyrimidin-5-yl}-N-methoxypyridine-3-carboxamide] yielded an inhibition at 13 µM of 95%. COc1cc(C#N)cc(Nc2ncc(-c3cncc(C(=O)O)c3)c(-n3ccc(C(F)(F)F)n3)n2)c1 [Example 732, 5-{2-[(3-cyano-5-methoxyphenyl)amino]-4-[3-(trifluoromethyl)-1H-pyrazol-1-yl]pyrimidin-5-yl}pyridine-3-carboxylic acid] showed an inhibition at 13 µM of 100%. Compound CCN1CC(CNc2nc(Nc3ccc(F)c(Cl)c3)ncc2-c2cnc(OC)nc2)CC1=O (stereo not shown) [Example 467, 4-((2-(3-chloro-4-fluorophenylamino)-2′-methoxy-5,5′-bipyrimidin-4-ylamino)methyl)-1-ethylpyrrolidin-2-one] has an inhibition at 13 µM of 76%. COc1ncc(-c2cnc(Nc3cc(C)cc(Cl)c3)nc2-n2nc(C(F)(F)F)cc2C)cc1C(=O)NS(C)(=O)=O [Example 803, 5-{2-[(3-chloro-5-methylphenyl)amino]-4-[5-methyl-3-(trifluoromethyl)-1H-pyrazol-1-yl]pyrimidin-5-yl}-2-methoxy-N-(methylsulfonyl)pyridine-3-carboxamide] gave an inhibition at 13 µM of 100%. With COc1cc(F)cc(Nc2ncc(-c3cncc(C(=O)O)c3)c(N3CCOCC3)n2)c1 [Example 394, 5-[2-(3-Fluoro-5-methoxy-phenylamino)-4-morpholino-4-yl-pyrimidin-5-yl]-nicotinic acid] the inhibition at 13 µM was 94%. O=C(O)c1cncc(-c2cnc(Nc3ccc(F)c(Cl)c3)nc2NCCc2ccncc2)c1 [Example 230, 5-[2-(3-Chloro-4-fluoro-phenylamino)-4-(2-pyridin-4-yl-ethylamino)-pyrimidin-5-yl]-nicotinic acid] gave an inhibition at 13 µM of 79.6%. In the case of COc1cc(CNc2nc(Nc3ccc(F)c(Cl)c3)ncc2-c2cnc(OC)nc2)cc(OC)c1 [Example 464, N2-(3-chloro-4-fluorophenyl)-N4-(3,5-dimethoxybenzyl)-2′-methoxy-5,5′-bipyrimidin-2,4-diamine], the inhibition at 13 µM is reported as 36%. COc1cc(Nc2ncc(-c3cnc(OCCS(C)(=O)=O)c(C(=O)O)c3)c(-n3nc(C(F)(F)F)cc3C)n2)cc(OC)c1 [Example 965, 5-(2-(3,5-dimethoxyphenylamino)-4-(5-methyl-3-(trifluoromethyl)-1H-pyrazol-1-yl)pyrimidin-5-yl)-2-(2-(methylsulfonyl)ethoxy)nicotinic acid] was tested, and the inhibition at 13 µM was 100%. Compound COc1cc(Nc2ncc(-c3cccc(/C=C/C(=O)O)c3)c(-n3nc(C(F)(F)F)cc3C)n2)cc(S(C)(=O)=O)c1 [Example 653] has an inhibition at 13 µM of 86%. With COc1ncc(-c2cnc(Nc3cccc(C(N)=O)c3)nc2-n2nc(C(F)(F)F)cc2C)cc1C(=O)O [Example 723, 5-{2-[(3-carbamoylphenyl)amino]-4-[5-methyl-3-(trifluoromethyl)-1H-pyrazol-1-yl]pyrimidin-5-yl}-2-methoxypyridine-3-carboxylic acid] the inhibition at 13 µM was 94%. With CNC(=O)c1cc(-c2cnc(Nc3ccc(F)c(Cl)c3)nc2-n2nc(C(F)(F)F)cc2C)cnc1OC [Example 1103, 5-(2-(3-chloro-4-fluorophenylamino)-4-(5-methyl-3-(trifluoromethyl)-1H-pyrazol-1-yl)pyrimidin-5-yl)-2-methoxy-N-methylnicotinamide] the inhibition at 13 µM was 76%. Work on Cc1cc(C(F)(F)F)nn1-c1nc(Nc2ccc(F)c(Cl)c2)ncc1-c1cncc(C(=O)NCCN2CCOCC2)c1 [Example 932, 5-(2-(3-chloro-4-fluorophenylamino)-4-(5-methyl-3-(trifluoromethyl)-1H-pyrazol-1-yl)pyrimidin-5-yl)-N-(2-morpholinoethyl) nicotinamide] yielded an inhibition at 13 µM of 100%. In the case of O=C(O)C(=O)Nc1cccc(-c2cnc(Nc3ccc(F)c(Cl)c3)nc2-n2ccc(C(F)(F)F)n2)c1 [Example 1072, 2-(3-(2-(3-Chloro-4-fluorophenylamino)-4-(3-(trifluoromethyl)-1H-pyrazol-1-yl)pyrimidin-5-yl)phenylamino)-2-oxoacetic acid], the inhibition at 13 µM is reported as 95%. Work on O=C(O)c1cncc(-c2cnc(Nc3ccc(F)c(Cl)c3)nc2NCCOc2ccccc2)c1 [Example 239, 5-[2-[(3-chloro-4-fluorophenyl)amino]-4-(2-phenoxyethylamino)-pyrimidin-5-yl]pyridine-3-carboxylic acid] yielded an inhibition at 13 µM of 85.1%. Compound CN(C)CCCNc1nc(Nc2ccc(F)c(Cl)c2)ncc1-c1cncc(C(=O)NCc2ccccc2)c1 [Example 371, N-benzyl-5-(2-(3-chloro-4-fluorophenylamino)-4-(3-(dimethylamino)propylamino)pyrimidin-5-yl) nicotinamide] has an inhibition at 13 µM of 82.2%. Work on CC(C)Nc1nc(Nc2ccc(F)c(Cl)c2)ncc1-c1cncnc1 [Example 59, N^2-(3-chloro-4-fluorophenyl)-N^4-propan-2-yl-5-pyrimidin-5-ylpyrimidine-2,4-diamine] yielded an inhibition at 13 µM of 51.8%. CC(=O)NCCNc1nc(Nc2ccc(F)c(Cl)c2)ncc1-c1cncc(C(=O)O)c1 [Example 221, 5-[4-(2-Acetylamino-ethylamino)-2-(3-chloro-4-fluoro-phenylamino)-pyrimidin-5-yl]-nicotinic acid] was tested, and the inhibition at 13 µM was 81%. For CCOC(=O)c1cncc(-c2cnc(Nc3ccc(F)c(Cl)c3)nc2N2CCN(C)CC2)c1 [Example 151, ethyl 5-(2-(3-chloro-4-fluorophenylamino)-4-(4-methylpiperazin-1-yl)pyrimidin-5-yl)nicotinate], the inhibition at 13 µM was 50.1%. COc1cc(Nc2ncc(-c3cncc(C(=O)NS(C)(=O)=O)c3)c(-n3ccc(C(F)(F)F)n3)n2)cc(OC)c1 [Example 686, 5-{2-[(3,5-dimethoxyphenyl)amino]-4-[3-(trifluoromethyl)-1H-pyrazol-1-yl]pyrimidin-5-yl}-N-(methylsulfonyl)pyridine-3-carboxamide] gave an inhibition at 13 µM of 100%. Work on COCCONC(=O)c1cc(-c2cnc(Nc3cc(OC)cc(OC)c3)nc2-n2ccc(C(F)(F)F)n2)cnc1OC [Example 1168, 5-(2-(3,5-dimethoxyphenylamino)-4-(3-(trifluoromethyl)-1H-pyrazol-1-yl)pyrimidin-5-yl)-2-methoxy-N-(2-methoxyethoxy)nicotinamide] yielded an inhibition at 13 µM of 100%. Compound CCOC(=O)c1cncc(-c2cnc(Nc3ccc(F)c(Cl)c3)nc2N2CCC(O)CC2)c1 [Example 117, ethyl 5-[2-[(3-chloro-4-fluorophenyl)amino]-4-(4-hydroxypiperidin-1-yl)pyrimidin-5-yl]pyridine-3-carboxylate] has an inhibition at 13 µM of 73.4%. CN(C)CCCNc1nc(Nc2ccc(F)c(Cl)c2)ncc1-c1cncc(-c2noc(=O)[nH]2)c1 [Example 81, Sodium 3-(5-(2-(3-chloro-4-fluorophenylamino)-4-(3-(dimethylamino)propylamino)pyrimidin-5-yl)pyridin-3-yl)-5-oxo-1,2,4-oxadiazol-4-ide] was tested, and the inhibition at 13 µM was 72.6%. CCOC(=O)c1cncc(-c2cnc(Nc3ccc(F)c(Cl)c3)nc2NCCOC(C)C)c1 [Example 109, ethyl 5-[2-[(3-chloro-4-fluorophenyl)amino]-4-(2-propan-2-yloxyethylamino)pyrimidin-5-yl]pyridine-3-carboxylate] was tested, and the inhibition at 13 µM was 52.4%. With O=C(O)c1cncc(-c2cnc(Nc3ccc(F)c(Cl)c3)nc2NCCCc2nc3ccccc3[nH]2)c1 [Example 271, 5-(4-(3-(1H-benzo[d]imidazol-2-yl)propylamino)-2-(3-chloro-4-fluorophenylamino)-pyrimidin-5-yl)nicotinic acid] the inhibition at 13 µM was 86.6%. In the case of CCOC(=O)c1cncc(-c2cnc(Nc3ccc(F)c(Cl)c3)nc2NCc2ccco2)c1 [Example 110, ethyl 5-[2-[(3-chloro-4-fluorophenyl)amino]-4-(furan-2-ylmethylamino)pyrimidin-5-yl]pyridine-3-carboxylate], the inhibition at 13 µM is reported as 27.6%.
